Numbers after ± are expanded uncertainties.
Details: 343.15 K, Liquid, Vibrating tube method

Work on `CCCC(=O)OCC(COC(=O)CCC)(COC(=O)CCC)COC(=O)CCC` [pentaerythritol tetrabutyrate] yielded a mass density (27905 kPa) of 1028.5 ± 1.2 kg/m3, a mass density (27944 kPa) of 1028.4 ± 1.2 kg/m3 and a mass density (27976 kPa) of 1028.5 ± 1.2 kg/m3. The mass density (28014 kPa) was 1028.6 ± 1.2 kg/m3, the mass density (28054 kPa) was 1028.6 ± 1.2 kg/m3 and the mass density (28087 kPa) was 1028.5 ± 1.2 kg/m3. For the same compound, the mass density (28127 kPa) was 1028.6 ± 1.2 kg/m3, the mass density (28281 kPa) was 1028.7 ± 1.2 kg/m3 and the mass density (28314 kPa) was 1028.6 ± 1.2 kg/m3. It also gave a mass density (28355 kPa) of 1028.7 ± 1.2 kg/m3, a mass density (28389 kPa) of 1028.6 ± 1.2 kg/m3 and a mass density (28430 kPa) of 1028.9 ± 1.2 kg/m3. The mass density (28465 kPa) was 1028.7 ± 1.2 kg/m3, the mass density (28506 kPa) was 1028.8 ± 1.2 kg/m3 and the mass density (28548 kPa) was 1028.9 ± 1.2 kg/m3. It also gave a mass density (28583 kPa) of 1028.8 ± 1.2 kg/m3, a mass density (28623 kPa) of 1028.9 ± 1.2 kg/m3 and a mass density (28658 kPa) of 1029 ± 1.2 kg/m3. For the same compound, the mass density (28700 kPa) was 1028.9 ± 1.2 kg/m3, the mass density (28735 kPa) was 1029.1 ± 1.2 kg/m3 and the mass density (28776 kPa) was 1029 ± 1.2 kg/m3. For the same compound, the mass density (28818 kPa) was 1029 ± 1.2 kg/m3, the mass density (28853 kPa) was 1029.1 ± 1.2 kg/m3 and the mass density (28895 kPa) was 1029.1 ± 1.2 kg/m3. The mass density (28938 kPa) was 1029.2 ± 1.2 kg/m3, the mass density (28973 kPa) was 1029.2 ± 1.2 kg/m3 and the mass density (29016 kPa) was 1029.2 ± 1.2 kg/m3. For the same compound, the mass density (29052 kPa) was 1029.3 ± 1.2 kg/m3, the mass density (29095 kPa) was 1029.1 ± 1.2 kg/m3 and the mass density (29138 kPa) was 1029.2 ± 1.2 kg/m3. It also gave a mass density (29173 kPa) of 1029.4 ± 1.2 kg/m3, a mass density (29217 kPa) of 1029.4 ± 1.2 kg/m3 and a mass density (29262 kPa) of 1029.3 ± 1.2 kg/m3. For the same compound, the mass density (29299 kPa) was 1029.4 ± 1.2 kg/m3, the mass density (29344 kPa) was 1029.3 ± 1.2 kg/m3 and the mass density (29386 kPa) was 1029.4 ± 1.2 kg/m3. The mass density (29417 kPa) was 1029.3 ± 1.2 kg/m3, the mass density (29455 kPa) was 1029.4 ± 1.2 kg/m3 and the mass density (29492 kPa) was 1029.5 ± 1.2 kg/m3. It also gave a mass density (29524 kPa) of 1029.5 ± 1.2 kg/m3, a mass density (29563 kPa) of 1029.6 ± 1.2 kg/m3 and a mass density (29744 kPa) of 1029.6 ± 1.2 kg/m3. It also gave a mass density (29776 kPa) of 1029.7 ± 1.2 kg/m3, a mass density (29815 kPa) of 1029.6 ± 1.2 kg/m3 and a mass density (29847 kPa) of 1029.7 ± 1.2 kg/m3. The mass density (29886 kPa) was 1029.7 ± 1.2 kg/m3, the mass density (29926 kPa) was 1029.8 ± 1.2 kg/m3 and the mass density (29959 kPa) was 1029.8 ± 1.2 kg/m3. For the same compound, the mass density (29999 kPa) was 1029.8 ± 1.2 kg/m3, the mass density (30033 kPa) was 1030 ± 1.2 kg/m3 and the mass density (30073 kPa) was 1029.8 ± 1.2 kg/m3. It also gave a mass density (30115 kPa) of 1029.9 ± 1.2 kg/m3, a mass density (30149 kPa) of 1029.9 ± 1.2 kg/m3 and a mass density (30190 kPa) of 1029.9 ± 1.2 kg/m3. The mass density (30494 kPa) was 1030.1 ± 1.2 kg/m3, the mass density (30523 kPa) was 1030.1 ± 1.2 kg/m3 and the mass density (30557 kPa) was 1030.2 ± 1.2 kg/m3. The mass density (30591 kPa) was 1030.2 ± 1.2 kg/m3, the mass density (30621 kPa) was 1030.3 ± 1.2 kg/m3 and the mass density (30656 kPa) was 1030.2 ± 1.2 kg/m3. The mass density (30685 kPa) was 1030.1 ± 1.2 kg/m3, the mass density (30721 kPa) was 1030.3 ± 1.2 kg/m3 and the mass density (30750 kPa) was 1030.3 ± 1.2 kg/m3. The mass density (30945 kPa) was 1030.3 ± 1.2 kg/m3, the mass density (30981 kPa) was 1030.5 ± 1.2 kg/m3 and the mass density (31016 kPa) was 1030.3 ± 1.2 kg/m3. The mass density (31046 kPa) was 1030.5 ± 1.2 kg/m3, the mass density (31082 kPa) was 1030.5 ± 1.2 kg/m3 and the mass density (31111 kPa) was 1030.5 ± 1.2 kg/m3. It also gave a mass density (31147 kPa) of 1030.5 ± 1.2 kg/m3, a mass density (31176 kPa) of 1030.6 ± 1.2 kg/m3 and a mass density (31212 kPa) of 1030.4 ± 1.2 kg/m3. It also gave a mass density (31249 kPa) of 1030.7 ± 1.2 kg/m3, a mass density (31280 kPa) of 1030.7 ± 1.2 kg/m3 and a mass density (31317 kPa) of 1030.6 ± 1.2 kg/m3. For the same compound, the mass density (31347 kPa) was 1030.6 ± 1.2 kg/m3, the mass density (31384 kPa) was 1030.8 ± 1.2 kg/m3 and the mass density (31414 kPa) was 1030.8 ± 1.2 kg/m3. It also gave a mass density (31451 kPa) of 1030.8 ± 1.2 kg/m3, a mass density (31487 kPa) of 1030.8 ± 1.2 kg/m3 and a mass density (31518 kPa) of 1030.8 ± 1.2 kg/m3. The mass density (31554 kPa) was 1030.8 ± 1.2 kg/m3, the mass density (31590 kPa) was 1030.9 ± 1.2 kg/m3 and the mass density (31621 kPa) was 1030.9 ± 1.2 kg/m3. It also gave a mass density (31658 kPa) of 1031 ± 1.2 kg/m3, a mass density (31688 kPa) of 1030.9 ± 1.2 kg/m3 and a mass density (31725 kPa) of 1030.9 ± 1.2 kg/m3. For the same compound, the mass density (31763 kPa) was 1031 ± 1.2 kg/m3, the mass density (31794 kPa) was 1031 ± 1.2 kg/m3 and the mass density (31831 kPa) was 1030.9 ± 1.2 kg/m3. It also gave a mass density (31867 kPa) of 1031.1 ± 1.2 kg/m3, a mass density (31898 kPa) of 1031.1 ± 1.2 kg/m3 and a mass density (31934 kPa) of 1031.1 ± 1.2 kg/m3. It also gave a mass density (31970 kPa) of 1031 ± 1.2 kg/m3, a mass density (32008 kPa) of 1031.1 ± 1.2 kg/m3 and a mass density (32044 kPa) of 1031.1 ± 1.2 kg/m3. It also gave a mass density (32074 kPa) of 1031.1 ± 1.2 kg/m3, a mass density (32111 kPa) of 1031.4 ± 1.2 kg/m3 and a mass density (32149 kPa) of 1031.2 ± 1.2 kg/m3. The mass density (32255 kPa) was 1031.2 ± 1.2 kg/m3, the mass density (32292 kPa) was 1031.2 ± 1.2 kg/m3 and the mass density (32329 kPa) was 1031.2 ± 1.2 kg/m3. For the same compound, the mass density (32367 kPa) was 1031.2 ± 1.2 kg/m3, the mass density (32398 kPa) was 1031.5 ± 1.2 kg/m3 and the mass density (32436 kPa) was 1031.5 ± 1.2 kg/m3. It also gave a mass density (32474 kPa) of 1031.3 ± 1.2 kg/m3, a mass density (32512 kPa) of 1031.3 ± 1.2 kg/m3 and a mass density (32544 kPa) of 1031.4 ± 1.2 kg/m3. It also gave a mass density (32582 kPa) of 1031.4 ± 1.2 kg/m3, a mass density (32621 kPa) of 1031.5 ± 1.2 kg/m3 and a mass density (32660 kPa) of 1031.4 ± 1.2 kg/m3. It also gave a mass density (32699 kPa) of 1031.6 ± 1.2 kg/m3, a mass density (32731 kPa) of 1031.5 ± 1.2 kg/m3 and a mass density (32769 kPa) of 1031.5 ± 1.2 kg/m3. For the same compound, the mass density (32808 kPa) was 1031.6 ± 1.2 kg/m3, the mass density (32846 kPa) was 1031.6 ± 1.3 kg/m3 and the mass density (32919 kPa) was 1031.6 ± 1.2 kg/m3. The mass density (32958 kPa) was 1031.8 ± 1.4 kg/m3, the mass density (33037 kPa) was 1031.7 ± 1.2 kg/m3 and the mass density (33070 kPa) was 1031.8 ± 1.2 kg/m3. The mass density (33110 kPa) was 1031.7 ± 1.3 kg/m3, the mass density (33151 kPa) was 1031.7 ± 1.2 kg/m3 and the mass density (33191 kPa) was 1031.8 ± 1.3 kg/m3. For the same compound, the mass density (33231 kPa) was 1032 ± 1.3 kg/m3, the mass density (33264 kPa) was 1031.8 ± 1.3 kg/m3 and the mass density (33304 kPa) was 1032.1 ± 1.3 kg/m3. It also gave a mass density (33345 kPa) of 1032.1 ± 1.3 kg/m3, a mass density (33379 kPa) of 1032 ± 1.3 kg/m3 and a mass density (33420 kPa) of 1032.1 ± 1.3 kg/m3. The mass density (33461 kPa) was 1032.1 ± 1.3 kg/m3, the mass density (33502 kPa) was 1032.1 ± 1.3 kg/m3 and the mass density (33951 kPa) was 1032.4 ± 1.3 kg/m3. The mass density (33995 kPa) was 1032.4 ± 1.3 kg/m3, the mass density (34033 kPa) was 1032.3 ± 1.3 kg/m3 and the mass density (34080 kPa) was 1032.5 ± 1.3 kg/m3. It also gave a mass density (34127 kPa) of 1032.4 ± 1.3 kg/m3, a mass density (34177 kPa) of 1032.6 ± 1.3 kg/m3 and a mass density (34220 kPa) of 1032.5 ± 1.3 kg/m3. The mass density (34271 kPa) was 1032.6 ± 1.3 kg/m3, the mass density (34323 kPa) was 1032.5 ± 1.3 kg/m3 and the mass density (34368 kPa) was 1032.6 ± 1.3 kg/m3. For the same compound, the mass density (34420 kPa) was 1032.7 ± 1.3 kg/m3, the mass density (34453 kPa) was 1032.7 ± 1.3 kg/m3 and the mass density (34484 kPa) was 1032.7 ± 1.3 kg/m3. It also gave a mass density (34510 kPa) of 1032.7 ± 1.3 kg/m3, a mass density (34517 kPa) of 1032.7 ± 1.3 kg/m3 and a mass density (34520 kPa) of 1032.8 ± 1.3 kg/m3.

From the NIST ThermoML archive (doi:10.1021/je060271a)
